The values below come from ChEMBL document CHEMBL1201862, “PubChem BioAssay data set” (2004).

Molecules are shown by their SMILES.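 Exposure lasted 48 hours, with cells grown in 96-well plates and compounds tested at five concentrations. GI50 is the concentration that inhibits growth by half.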 Calls of active or inactive are those of the source. No stated cut-off is given here; in the data, active = GI50 up to about 1.1 µM and inactive = higher. *1 amine or outer side, *2 acyl side, *3 side chain or, on linkers, in order; H or OH if unused. Where a SMILES comes first, the peptide text is derived from it. Bridges are numbered along the chain shown (N, C = ends). [ ]: non-standard residue; d: D form. The star is where a group is joined. ξ: configuration not given here. ξOrn(4,5-diOH) = O=C(C(CC(O)C(O)N[*:3])N[*:1])[*:2]; ξhTyr(βξ-OH,γξ-OH) = NC(C(=O)O)C(O)C(O)c1ccc(O)cc1; ξPro(3ξ-OH,4ξ-Me) = CC1CNC(C(=O)O)C1O; X55 = CCCCC/C=C/C/C=C\CCCCCCCC(=O)*; Hyp = O=C(O)[CH]1C[CH](O)CN1

Some test systems named below: MDA-MB-231; Malme-3M; IGROV-1; UACC-257; HCT-15; RXF 393; NCI/ADR-RES; NCI-H23; CCRF-CEM; OVCAR-5; HT-29; CAKI-1; EKVX; SK-MEL-2; M14; SNB-19; LOX IMVI; K562; MOLT-4; HCC 2998.
Common to all, as to assay: NCI-60 cell line screen, 48 h

`Nc1cccc2nnccc12`: the GI50 is > 100 µM (inactive) with MDA-MB-231; > 100 µM (inactive) in the experiment on Malme-3M; > 100 µM (inactive) in the experiment on IGROV-1; > 100 µM (inactive) with UACC-257; more than 100 µM with HCT-15; > 100 µM (inactive) in the experiment on RXF 393. For the same compound, the GI50 in the experiment on NCI/ADR-RES, in the experiment with NCI-H23, with CCRF-CEM, in the experiment on OVCAR-5, in the experiment with HT-29 and in the experiment on CAKI-1 was > 100 µM (inactive) each time. The GI50 in the experiment on EKVX, in the experiment with SK-MEL-2, in the experiment on M14 and with SNB-19 was > 100 µM (inactive) each time.

`COC(=O)c1ccccc1Nc1ccccc1C(=O)OC`: the GI50 in the experiment on MDA-MB-231 was 65.2 µM (inactive); in the experiment with Malme-3M it was 37.9 µM (inactive); with IGROV-1, 89.3 µM (inactive); in the experiment on UACC-257 it was > 100 µM (inactive); in the experiment on LOX IMVI it was 56.1 µM (inactive); in the experiment with HCT-15, more than 100 µM. In addition, the GI50 was 68.7 µM (inactive) in the experiment on RXF 393; > 100 µM (inactive) in the experiment with K562; > 100 µM (inactive) with NCI/ADR-RES; > 100 µM (inactive) in the experiment on NCI-H23; > 100 µM (inactive) in the experiment on CCRF-CEM; > 100 µM (inactive) in the experiment with OVCAR-5. Besides, the GI50 was 91.2 µM (inactive) in the experiment with HT-29; > 100 µM (inactive) in the experiment on CAKI-1; > 100 µM (inactive) with EKVX; > 100 µM (inactive) with SK-MEL-2; > 100 µM (inactive) with M14; > 100 µM (inactive) in the experiment with SNB-19. In the experiment with MOLT-4, the GI50 was > 100 µM (inactive).

In the case of `CN(C)c1ccc(/C=C/c2ccnc3ccccc23)cc1N`, the GI50 in the experiment with MDA-MB-231 was 4.04 µM (inactive); in the experiment with Malme-3M it was 10.9 µM (inactive); with UACC-257 it was 2.42 µM (inactive); in the experiment on LOX IMVI it was 7.41 µM (inactive); in the experiment with HCT-15 it was 6.24 µM; in the experiment on K562 it was 3.98 µM (inactive). The GI50 in the experiment with HCC 2998 was 10.1 µM (inactive); in the experiment on NCI/ADR-RES it was 13.1 µM (inactive); with NCI-H23 it was 5.68 µM (inactive); in the experiment on CCRF-CEM, 3 µM (inactive); in the experiment with OVCAR-5, 13.7 µM (inactive); in the experiment on HT-29, 4.49 µM (inactive). In addition, the GI50 in the experiment on EKVX was 4.72 µM (inactive); with SK-MEL-2, 8.65 µM (inactive); in the experiment on M14, 10.6 µM (inactive); with SNB-19, 14.4 µM (inactive); with MOLT-4, 5.64 µM (inactive).

Consider `COC1=C(C)C(=O)c2c(c(COC(N)=O)c3n2CC2C3N2C)C1=O` (centres undefined), for which the GI50 in the experiment on MDA-MB-231 was 0.168 µM (active); with Malme-3M, 0.0495 µM (active); in the experiment with IGROV-1, 0.0425 µM (active); in the experiment on UACC-257 it was < 0.0107 µM (active); in the experiment with LOX IMVI, < 0.01 µM (active); with HCT-15 it was less than 0.0118 µM. The GI50 in the experiment with RXF 393 was < 0.0331 µM (active); in the experiment on K562, 0.051 µM (active); in the experiment on NCI/ADR-RES, < 0.025 µM (active); with NCI-H23, < 0.0108 µM (active); with CCRF-CEM, 0.0154 µM (active); with OVCAR-5, 0.0313 µM (active). In addition, the GI50 with HT-29 was < 0.01 µM (active); in the experiment on CAKI-1 it was < 0.01 µM (active); with EKVX, 0.14 µM (active); in the experiment on SK-MEL-2 it was 0.0361 µM (active); in the experiment with M14 it was < 0.01 µM (active); with SNB-19, < 0.0115 µM (active). The GI50 in the experiment with MOLT-4 is < 0.0147 µM (active).

For `O=C1COc2cc(N3CCN(c4cccc(C(F)(F)F)c4)CC3)ccc2N1`, the GI50 was > 100 µM (inactive) with MDA-MB-231; > 100 µM (inactive) with IGROV-1; > 100 µM (inactive) with UACC-257; > 100 µM (inactive) with LOX IMVI; more than 100 µM in the experiment with HCT-15; > 100 µM (inactive) in the experiment on K562. Also, the GI50 in the experiment on HCC 2998, in the experiment on NCI/ADR-RES, in the experiment with NCI-H23, in the experiment with CCRF-CEM, in the experiment with OVCAR-5 and in the experiment with HT-29 was > 100 µM (inactive) in each case. The GI50 with CAKI-1, with EKVX, with SK-MEL-2, in the experiment on M14, in the experiment on SNB-19 and in the experiment with MOLT-4 was > 100 µM (inactive) in each case.

Consider `CCCCC/C=C/C/C=C\CCCCCCCC(=O)NC1CC(O)C(O)NC(=O)C2C(O)C(C)CN2C(=O)C(C(C)O)NC(=O)C(C(O)C(O)c2ccc(O)cc2)NC(=O)C2CC(O)CN2C(=O)C(C(C)O)NC1=O` (stereo not drawn) (X55-[ξOrn(4,5-diOH)]T[Hyp][ξhTyr(βξ-OH,γξ-OH)]T[ξPro(3ξ-OH,4ξ-Me)]; lactam 1-C; configuration not given here), for which the GI50 was > 100 µM (inactive) with MDA-MB-231; > 100 µM (inactive) in the experiment on IGROV-1; > 100 µM (inactive) in the experiment with UACC-257; > 100 µM (inactive) with LOX IMVI; more than 100 µM with HCT-15; > 100 µM (inactive) in the experiment on K562. In addition, the GI50 in the experiment on HCC 2998, in the experiment on NCI/ADR-RES, in the experiment with NCI-H23, with CCRF-CEM, with OVCAR-5 and in the experiment with HT-29 was > 100 µM (inactive) each time. In addition, the GI50 with CAKI-1, with EKVX, with SK-MEL-2, in the experiment on M14, with SNB-19 and in the experiment on MOLT-4 was > 100 µM (inactive) in each case.

As for `CNc1cc(OCc2ccccc2)c(OC)cc1C(=O)N1CCC[C@H]1CO`, the GI50 was > 100 µM (inactive) in the experiment on MDA-MB-231; > 100 µM (inactive) in the experiment with Malme-3M; > 100 µM (inactive) in the experiment with IGROV-1; > 100 µM (inactive) in the experiment on UACC-257; > 100 µM (inactive) in the experiment with LOX IMVI; more than 100 µM with HCT-15. Further, the GI50 was > 100 µM (inactive) with RXF 393; > 100 µM (inactive) in the experiment with NCI/ADR-RES; > 100 µM (inactive) with NCI-H23; 81.5 µM (inactive) in the experiment on CCRF-CEM; > 100 µM (inactive) in the experiment with OVCAR-5; > 100 µM (inactive) in the experiment on HT-29. Also, the GI50 in the experiment on CAKI-1, with EKVX, with SK-MEL-2, with M14, in the experiment with SNB-19 and in the experiment with MOLT-4 was > 100 µM (inactive) throughout.

Take `N#CC1(C#N)N[C@@H](c2ccsc2)[C@H]2C(=O)N(c3ccccc3)C(=O)[C@H]21`: the GI50 with MDA-MB-231 is 61 µM (inactive); with Malme-3M, > 100 µM (inactive); with IGROV-1, 60.7 µM (inactive); in the experiment on UACC-257 it was 29.6 µM (inactive); with LOX IMVI it was 37.3 µM (inactive); in the experiment on RXF 393, 70.3 µM (inactive). The GI50 is 51.9 µM (inactive) with K562; > 100 µM (inactive) in the experiment on NCI/ADR-RES; > 100 µM (inactive) in the experiment with NCI-H23; 85.5 µM (inactive) in the experiment on HT-29; 43 µM (inactive) in the experiment on CAKI-1; > 100 µM (inactive) with EKVX. Moreover, the GI50 in the experiment with SK-MEL-2 was > 100 µM (inactive); in the experiment with MOLT-4, 36.7 µM (inactive).

For `CN1CC2=C(N=C(S)NC2c2ccccc2)/C(=C/c2ccccc2)C1` (centres undefined), the GI50 in the experiment on MDA-MB-231 was > 10 µM (inactive); in the experiment on Malme-3M it was 30.1 µM (inactive); in the experiment on IGROV-1, 24.5 µM (inactive); with UACC-257, 91.6 µM (inactive); with LOX IMVI it was 29.7 µM (inactive); in the experiment on HCT-15, 33 µM. The GI50 is 33 µM (inactive) in the experiment on K562; 29.3 µM (inactive) with HCC 2998; > 100 µM (inactive) with NCI/ADR-RES; 56.2 µM (inactive) in the experiment with NCI-H23; 31.1 µM (inactive) in the experiment with CCRF-CEM; > 100 µM (inactive) in the experiment with OVCAR-5. Moreover, the GI50 was 27 µM (inactive) in the experiment with HT-29; > 100 µM (inactive) in the experiment with CAKI-1; 75.2 µM (inactive) in the experiment on EKVX; 45.9 µM (inactive) in the experiment with SK-MEL-2; 25.4 µM (inactive) with M14; > 100 µM (inactive) with SNB-19. The GI50 with MOLT-4 was 13 µM (inactive).

Take `CCOC(=O)c1nc2ccccc2nc1Nc1ccc(C(=O)OC)s1`: the GI50 in the experiment on MDA-MB-231 was > 100 µM (inactive); in the experiment on Malme-3M it was 18.5 µM (inactive); with IGROV-1 it was > 100 µM (inactive); with UACC-257, > 100 µM (inactive); in the experiment on LOX IMVI it was > 100 µM (inactive); with HCT-15, more than 100 µM. The GI50 in the experiment on HCC 2998, in the experiment with NCI/ADR-RES, in the experiment with NCI-H23, with CCRF-CEM, in the experiment with OVCAR-5 and in the experiment with HT-29 was > 100 µM (inactive) each time. Besides, the GI50 with CAKI-1, with EKVX, in the experiment with SK-MEL-2, with M14, with SNB-19 and in the experiment with MOLT-4 was > 100 µM (inactive) each time.

Take `C=C1C(=O)OC2CC(=C)C3CC=C(C)C3CC12` (centres undefined): the GI50 is 21.5 µM (inactive) in the experiment with MDA-MB-231; > 10 µM (inactive) in the experiment with Malme-3M; 18 µM (inactive) in the experiment with IGROV-1; 14.4 µM (inactive) in the experiment on UACC-257; 11.1 µM (inactive) with LOX IMVI; 17.5 µM in the experiment on HCT-15. In addition, the GI50 is 11 µM (inactive) with K562; 21.1 µM (inactive) in the experiment on HCC 2998; 35.5 µM (inactive) in the experiment on NCI/ADR-RES; 8.24 µM (inactive) in the experiment on CCRF-CEM; 46.7 µM (inactive) in the experiment with OVCAR-5; 13 µM (inactive) in the experiment with HT-29. For the same compound, the GI50 with CAKI-1 was 15 µM (inactive); in the experiment on EKVX, 64.6 µM (inactive); in the experiment on SK-MEL-2, 11.7 µM (inactive); with M14, 18 µM (inactive); in the experiment with SNB-19, 22.9 µM (inactive); in the experiment with MOLT-4 it was 17.3 µM (inactive).
